Data as given in PubChem BioAssay (NCI).
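Assay format: 96-well plates, 48-hour exposure. Abbreviation: GI50, concentration required for 50% inhibition of growth. TGI: total growth inhibition.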

How the values were obtained:
Experiment in all cases: NCI tumour cell line growth inhibition, 48 h
[1] = tested on: DU-145 prostate
[2] = tested on: HS 578T breast
[3] = tested on: SF-539 CNS
[4] = tested on: U251 CNS
[5] = tested on: SF-295 CNS
[6] = tested on: IGROV1 ovarian
[7] = tested on: UACC-62 melanoma
[8] = tested on: HL-60(TB) leukemia
[9] = tested on: SK-MEL-2 melanoma
[10] = tested on: RXF 393 renal
[11] = tested on: SK-MEL-28 melanoma
[12] = tested on: KM12 colon
[13] = tested on: HOP-62 NSCLC
[14] = tested on: NCI-H460 lung
[15] = tested on: HOP-92 NSCLC
[16] = tested on: NCI-H226 lung
[17] = tested on: ACHN renal
[18] = tested on: SR leukemia
[19] = tested on: K-562 leukemia
[20] = tested on: SN12C renal
[21] = tested on: UO-31 renal
[22] = tested on: OVCAR-8 ovarian
[23] = tested on: HCT-15 colon
[24] = tested on: SNB-75 CNS
[25] = tested on: 786-0 renal
[26] = tested on: LOX IMVI melanoma
[27] = tested on: PC-3 prostate
[28] = tested on: OVCAR-4 ovarian
[29] = tested on: SK-MEL-5 melanoma
[30] = tested on: CCRF-CEM leukemia
[31] = tested on: MALME-3M melanoma
[32] = tested on: OVCAR-5 ovarian
[33] = tested on: BT-549 breast
[34] = tested on: COLO 205 colon
[35] = tested on: MDA-MB-231 breast
[36] = tested on: NCI/ADR-RES ovarian
[37] = tested on: MDA-MB-435
[38] = tested on: MCF7 breast
[39] = tested on: NCI-H522 lung
[40] = tested on: UACC-257 melanoma
[41] = tested on: HCT-116 colon
[42] = tested on: SF-268 CNS
[43] = tested on: SNB-19 CNS
[44] = tested on: SK-OV-3 ovarian
[45] = tested on: CAKI-1 renal
[46] = tested on: TK-10 renal
[47] = tested on: EKVX NSCLC
[48] = tested on: HCC-2998 colon
[49] = tested on: OVCAR-3 ovarian
[50] = tested on: T-47D breast
[51] = tested on: A549 NSCLC
[52] = tested on: HT29 colon
[53] = tested on: A498 renal
[54] = tested on: SW-620 colon
[55] = tested on: M14 melanoma
[56] = tested on: NCI-H23 lung
[57] = tested on: RPMI-8226 leukemia
[58] = tested on: MOLT-4 leukemia

COc1cc2c3c(n(CCCN4CCCC4)c(=O)c2cc1OC)-c1cc2c(cc1C3=O)OCO2
GI50 [1]: 1310 nM
TGI [1]: 2580 nM
GI50 [2]: 2030 nM
TGI [2]: 5080 nM
GI50 [3]: 1320 nM
TGI [3]: 2770 nM
GI50 [4]: 1180 nM
TGI [4]: 2480 nM
GI50 [5]: 223 nM
TGI [5]: 2010 nM
GI50 [6]: 1420 nM
TGI [6]: 3090 nM
GI50 [7]: 1480 nM
TGI [7]: 3480 nM
GI50 [8]: 677 nM
TGI [8]: 1890 nM
GI50 [9]: 17100 nM
TGI [9]: 33600 nM
GI50 [10]: 1490 nM
TGI [10]: 2950 nM
GI50 [11]: 1710 nM
TGI [11]: 3380 nM
GI50 [12]: 1610 nM
TGI [12]: 3230 nM
GI50 [13]: 650 nM
TGI [13]: 2460 nM
GI50 [14]: 206 nM
TGI [14]: 2240 nM
GI50 [15]: 1930 nM
TGI [15]: 3940 nM
GI50 [16]: 5870 nM
TGI [16]: 20500 nM
GI50 [17]: 1360 nM
TGI [17]: 2670 nM
GI50 [18]: 51.4 nM
TGI [18]: 590 nM
GI50 [19]: 216 nM
TGI [19]: 895 nM
GI50 [20]: 1650 nM
TGI [20]: 3380 nM
GI50 [21]: 1430 nM
TGI [21]: 2850 nM
GI50 [22]: 1360 nM
TGI [22]: 3090 nM
GI50 [23]: 1430 nM
TGI [23]: 3100 nM
GI50 [24]: 286 nM
TGI [24]: 1960 nM
GI50 [25]: 1320 nM
TGI [25]: 2900 nM
GI50 [26]: 680 nM
TGI [26]: 2290 nM
GI50 [27]: 1470 nM
TGI [27]: 3840 nM
GI50 [28]: 1770 nM
TGI [28]: 3380 nM
GI50 [29]: 4250 nM
TGI [29]: 9120 nM
GI50 [30]: 67.3 nM
TGI [30]: 2310 nM
GI50 [31]: 1500 nM
TGI [31]: 3220 nM
GI50 [32]: 1900 nM
TGI [32]: 3500 nM
GI50 [33]: 1400 nM
TGI [33]: 3490 nM
GI50 [34]: 1110 nM
TGI [34]: 2550 nM
GI50 [35]: 1650 nM
TGI [35]: 3310 nM
GI50 [36]: 1350 nM
TGI [36]: 3680 nM
GI50 [37]: 1590 nM
TGI [37]: 3120 nM
GI50 [38]: 228 nM
TGI [38]: 2210 nM
GI50 [39]: 789 nM
TGI [39]: 2520 nM
GI50 [40]: 1490 nM
TGI [40]: 3210 nM
GI50 [41]: 1140 nM
TGI [41]: 2690 nM
GI50 [42]: 650 nM
TGI [42]: 2370 nM
GI50 [43]: 1540 nM
TGI [43]: 3720 nM
GI50 [44]: 795 nM
TGI [44]: 2460 nM
GI50 [45]: 1160 nM
TGI [45]: 2450 nM
GI50 [46]: 1930 nM
TGI [46]: 3460 nM
GI50 [47]: 1950 nM
TGI [47]: 3960 nM
GI50 [48]: 1380 nM
TGI [48]: 2800 nM
GI50 [49]: 1570 nM
TGI [49]: 2980 nM
GI50 [50]: 4700 nM
TGI [50]: 11100 nM
GI50 [51]: 1400 nM
TGI [51]: 2850 nM
GI50 [52]: 1320 nM
TGI [52]: 2760 nM
GI50 [53]: 5530 nM
TGI [53]: 10800 nM
GI50 [54]: 624 nM
TGI [54]: 3450 nM
GI50 [55]: 1500 nM
TGI [55]: 3010 nM
GI50 [56]: 1630 nM
TGI [56]: 3980 nM
GI50 [57]: 1250 nM
TGI [57]: 4500 nM
GI50 [58]: < 17.9 nM
TGI [58]: 1610 nM
